One molecule from patent publication US20090023755A1, “USE OF ISTRADEFYLLINE FOR TREATING BEHAVIORAL DISORDERS” (KYOWA HAKKO KOGYO CO., LTD., priority 2002, published 2009) can be followed below.

Data set [1] concerns 6-hydroxydopamine-treated neonatal rats. Kind of data set: Locomotor activity in 6-hydroxydopamine-treated neonatal rats. In kind it is in vivo, rat. How it is done:
Methods: Female neonatal SD rats were used for the experiments. 100 μg 6-Hydroxydopamine (6-HODA) was dissolved in a 0.1% solution of ascorbic acid in saline, and the obtained solution or 0.1% ascorbic acid in saline (control) was injected first at 3 days of age into the left lateral ventricle of the rat and secondly at 6 days of age into the right lateral ventricle of the rat. At 30-37 days, locomotor activity was measured by placing the rat in a transparent acrylic box (50×50×50 cm) 60 minutes after the drug administration using digital counters with infrared sensors (Scanet MV-10MT; Toyo Sangyo Co. Ltd., Toyama, Japan).
Compound (I) was suspended in a 0.3% aqueous Tween 80 solution, and administered orally to 6-HODA treated rats.

Data set [2] concerns 6-hydroxydopamine-treated young rats. Kind of data set: Tic/Tourette like symptoms in 6-hydroxydopamine-treated young rats. In kind it is in vivo, rat. How it is done:
Methods: 6-HODA was injected into the left medial forebrain bundle of a rat to induce a unilateral lesion of dopaminergic neurons, followed by repeated oral administration of L-DOPA at 20 mg/kg twice daily for 2 weeks to make a rat model of tic-like symptoms.
Tic-like, abnormal involuntary movements were observed after day 3 during repetitive treatment with L-DOPA. Two subtypes of involuntary movements were classified as axial (lateral torsion of the head, neck and trunk towards the side contralateral to the lesion, including swing of the head) and forelimb (abnormal movements contralateral to the lesion, including kicking movements of the forelimb).
The severity of these movements was assigned a score from 0 to 4 to each movement as follows.
(score 0) no deviation of head
(score 1) lateral deviation of head: […]
(score 2) lateral deviation of head: more than 30°, and 60° or less
(score 3) torsion of head and upper trunk: more than 60°, and 90° or less
(score 4) torsion of head and trunk: more than 90°
(score 0) no movements of both distal and proximal forelimbs
(score 1) tiny oscillatory movements of the distal forelimb
(score 2) movements of low amplitude but causing visible translocation of both distal and proximal forelimbs
(score 3) translocation of the whole limb with visible contraction of shoulder muscles
(score 4) vigorous limb and shoulder movements of maximal amplitude
Compound (I) was repeatedly administered orally to 6-HODA treated rats at 1 mg/kg for 23 days, and Tic-like, abnormal involuntary movements were observed every 10 minutes for 3 hours, each time for one minute.
Peak score was obtained by adding the peak score for forelimb to that for axial (Data are expressed as mean±standard deviation in the following Table 1). Peak time means the time after the first administration when peak score was score observed.

In the next data set the test system is young rats. Kind of data set: Acquisition of a delayed alternation task in young rats. The data set is classed as in vivo, rat. The following applies: for Choice reaction times per session (mean ± s.e.m.) / Simple reaction times per session (mean ± s.e.m.): 0.3 mg/kg p.o. -60 min. How it is done:
The following experiment was carried out according to a method described in Drug Dev. Res., 35, p. 83-95 (1996) with a slight modification. Methods: Male Rj: Wistar (Han) rats were used for the experiments. Before being tested, the rats were given the standard diet each day. Several 45 mg food pellets (these were also used in the delayed alternation sessions described below) were also given them to habituate them to this novel food.
The aim of this phase is to train rats, on the presentation of a single centralized retractable lever, to press on it to receive a food pellet.
The rats were subjected to 10 lever-pressing acquisition sessions in the experimental chambers according to a fixed ratio (FR1) schedule of reinforcement. Reinforcement consists of food pellets (45 mg) delivered after each lever-press. Each daily session lasts 15 minutes. All rats received an intraperitoneal administration of physiological saline 30 minutes before each session. During the first 7 sessions, the Skinner boxes were equipped with only one fixed lever situated centrally above the food receptacle, to avoid spatial preference for the right or the left side of the experimental panel. After the 7th lever-pressing session, the boxes were equipped with two retractable levers located on either side of the food receptacle. The rats were then subjected to 3 consecutive sessions in which the left or the right lever was pseudo-randomly presented every 5 seconds. At the end of this phase 80 to 100% of the rats acquired the lever press-response. […] If some rats were close to establishing steady lever-pressing behavior they were given extra training with the aim of attaining at least 10 rats per group. Rats were assigned to treatment groups matched on the basis of their performance.
Subsequent to lever-press acquisition sessions, all rats were subjected to delayed alternation sessions. The test was conducted for 5 days. During this phase, the boxes were equipped with two retractable levers on each side of the food distributor. Each session consisted of 35 successive trials every 10 seconds. In each trial, the rat was first presented with one lever (left or right). When the rat pressed on the lever, the rat was given a food pellet, the lever was retracted and 5 seconds later two levers were presented. The rat had to learn to press on the lever opposite to that previously presented to gain a food pellet (non-matching to sample).
Compound (I) was suspended in 0.5% methylcellulose in distilled water and administered orally 60 minutes before each session.
The effect of Compound (I) was evaluated by measuring simple reaction time, which means the reaction time to each one-lever presentation, and choice reaction time, which means the reaction time to each two-lever presentation.

In another data set the test system is dd-strain male mice. The experiment in a line: Acute toxicity test. The data set is classed as in vivo. Conditions: oral administration, mortality seven days after administration. The source says:
Compound (I) was orally or intraperitoneally administered to groups of dd-strain male mice weighing 20±1 g, each group consisting of three mice.

The mark [3] stands for this setting: 1 mg/kg orally, compared with before administration.
[4] abbreviates: 0.3 mg/kg orally, compared with vehicle control rats.

Regarding `CCn1c(=O)c2c(nc(/C=C/c3ccc(OC)c(OC)c3)n2C)n(CC)c1=O` [Compound (I), (E)-8-(3,4-dimethoxystyryl)-1,3-diethyl-7-methylxanthine], the locomotor activity entry is listed as “decreased locomotor activities” in data set [1] (6-HODA treated rats, 1.25 mg/kg orally, measured 60 minutes after administration); “decreased locomotor activities” in data set [1] (6-HODA treated rats, 5 mg/kg orally, measured 60 minutes after administration); “increased locomotor activities” in data set [1] (control rats treated only with 0.1% ascorbic acid in saline (vehicle), oral). In addition, the peak score entry in data set [2] (setting [3]) was “decreased”; in data set [2] (L-DOPA + compound 1 mg/kg p.o., Day 1, n = 6, mean ± standard deviation, forelimb + axial), 5.6 ± 1.4; in data set [2] (L-DOPA + compound 1 mg/kg p.o., Day 9, n = 6, mean ± standard deviation, forelimb + axial), 4.4 ± 1.6; in data set [2] (L-DOPA + compound 1 mg/kg p.o., Day 23, n = 6, mean ± standard deviation, forelimb + axial), 1.6 ± 0.6. Besides, the peak time result in data set [2] (setting [3]) was “decreased”; in data set [2] (L-DOPA + compound 1 mg/kg p.o., Day 1), 30 min; in data set [2] (L-DOPA + compound 1 mg/kg p.o., Day 9) it was 40 min; in data set [2] (L-DOPA + compound 1 mg/kg p.o., Day 23) it was 20 min. Besides, in the data set with young rats (setting [4]), the choice reaction times entry was “significantly decreased”. The simple reaction times result in the data set on young rats (setting [4]) was “significantly decreased”. For the same molecule, the “Choice reaction times per session (mean ± s.e.m.)” value with young rats (session S1) was found to be 1.71 ± 0.13 s; in the data set on young rats (session S2), 1.52 ± 0.10 s; in the data set with young rats (session S3) it was 1.22 ± 0.12 s; with young rats (session S4), 1.13 ± 0.18 s; in the data set on young rats (session S5) it was 0.92 ± 0.09 s. In addition, the “Simple reaction times per session (mean ± s.e.m.)” value came out at 3.16 ± 0.24 s with young rats (session S1); 2.49 ± 0.28 s in the data set on young rats (session S2); 1.63 ± 0.20 s with young rats (session S3); 1.73 ± 0.21 s in the data set on young rats (session S4); 1.33 ± 0.11 s in the data set with young rats (session S5). In addition, the “minimum lethal dose (MLD)” value in the data set on dd-strain male mice is given as “greater than 1000 mg/kg”.
